Assay [1] in a line: Acute effect on tear fluid secretion (tearing rate, phenol red thread) in naive rats. The format is in vivo, Sprague-Dawley rats. The procedure:
Sprague-Dawley rats (males, around 200 g) were purchased from Charles River and adapted one week before processing the experiment. Two-three rats per cage were housed in a controlled environment of 12 hours intervals of light/dark cycles and free access to food and water. Animal experiments were approved by the Animal Care and Use Committee of the University of Barcelona (CEEA) and the […] de Territori i Sostenibilitat of Generalitat de Catalunya, Catalonia, Spain (319/19; 10935) and followed the ethical guidelines of the International Association for the Study of Pain. […] (also named Nter 13 peptide or […] NO: 2)) and scramble ([…] NO: 7)) peptides were purchased from GenScript Biotech (Leiden, Netherlands) and provided by CNRS. Both peptides were dissolved in Phosphate Buffered Saline (PBS) at 10 mM and used for topical ocular application (5 ul per eye). Tear fluid secretion (tearing rate) was measured using phenol red threads (Zone-Quick, Menicon, Nagoya, Japan) placed on the lower eyelid for 30 s without topical anesthesia (Trost, 2007; Acosta 2013). Tearing rate was determined with an accuracy of ±0.5 mm by measurement of the length of the red portion of the thread. After habituation of the animals, basal tearing rate was measured in both eyes before any topical application of peptides. Then, animals were divided in different groups and a solution containing vehicle (PBS), amiloride (1 mM), peptide N13 or peptide scramble was topically applied to the ocular surface (5 μl) and tearing rate was measured at 1, 3, 6, 12 and 24 h. Tearing rate measurements were done blind to the treatment received by the animals. Data are presented as mean±standard error of the mean (SEM). Statistical differences between different sets of data were assessed by performing repeated measured One-way ANOVA plus Bonferroni's post-tests (each data point in an experimental group vs. basal values) or repeated measured Two-way ANOVA plus Bonferroni's post-tests (each data point in […] group vs. Scramble or Vehicle group; or point in […] or amiloride groups vs. Vehicle group) using Prism 9 (GraphPad Software, San Diego, CA). The significance level was set at p<0.05 in all statistical analyses.

For assay [2], the target named is T1, TMEM16A (Mus musculus, UniProt Q8BHY3).
T1 construct: expressed in transfected cells; host or cells: HEK293T
T1 sequence (Q8BHY3 1-960): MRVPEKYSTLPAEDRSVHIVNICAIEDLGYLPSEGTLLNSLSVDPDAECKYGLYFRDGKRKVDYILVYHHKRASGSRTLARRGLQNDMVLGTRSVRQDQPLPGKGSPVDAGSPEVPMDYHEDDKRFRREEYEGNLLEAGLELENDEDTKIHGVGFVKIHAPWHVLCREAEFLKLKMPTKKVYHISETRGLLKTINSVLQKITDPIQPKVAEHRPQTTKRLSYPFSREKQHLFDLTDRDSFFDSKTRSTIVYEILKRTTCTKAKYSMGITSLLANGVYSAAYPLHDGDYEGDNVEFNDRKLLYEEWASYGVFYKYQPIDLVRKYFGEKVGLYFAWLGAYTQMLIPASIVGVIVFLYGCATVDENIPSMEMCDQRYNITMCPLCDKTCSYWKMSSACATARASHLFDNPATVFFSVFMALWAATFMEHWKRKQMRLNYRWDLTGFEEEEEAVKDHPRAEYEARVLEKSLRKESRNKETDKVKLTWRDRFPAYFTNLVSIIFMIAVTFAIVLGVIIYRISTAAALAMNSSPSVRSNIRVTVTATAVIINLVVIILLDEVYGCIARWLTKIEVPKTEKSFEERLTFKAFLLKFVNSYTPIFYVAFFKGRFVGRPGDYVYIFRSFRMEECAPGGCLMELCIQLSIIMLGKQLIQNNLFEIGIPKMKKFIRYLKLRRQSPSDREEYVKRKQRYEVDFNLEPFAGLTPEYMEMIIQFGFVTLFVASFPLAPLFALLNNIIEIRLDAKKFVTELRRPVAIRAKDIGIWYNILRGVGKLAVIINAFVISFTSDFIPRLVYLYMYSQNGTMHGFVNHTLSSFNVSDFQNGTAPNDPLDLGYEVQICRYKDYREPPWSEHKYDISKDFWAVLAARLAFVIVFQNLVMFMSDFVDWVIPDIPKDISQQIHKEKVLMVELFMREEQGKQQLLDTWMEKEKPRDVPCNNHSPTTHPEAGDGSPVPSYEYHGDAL
The assay can be described thus: Whole-cell patch-clamp of HEK293T cells expressing TMEM16A. The class given is cell-based. The note with it: for effect of peptide application on TMEM16A current: HEK293T cells expressing TMEM16A alone, 100 μM for Nter13, S38G and rat peptides; for inhibition of KCNE1-TMEM16A chloride current: HEK293T co-expressing TMEM16A and KCNE1. The procedure: (§1) mTMEM16A (kindly provided by Dr Lily Yeh Jan) and hKCNE1 cDNA were subcloned in pIRES2eGFP, pXOOM, pcDNA3.1, pCDNA3.1-GFP and pCMV-HA vectors. Truncations and mutations on KCNE1 were generated by PCR. For SiMPull experiments, HA-tags were fused to the N-terminus of sequences, whereas GFP-tags were fused to C-terminal part. HEK293T and PCT cells were transiently co-transfected using Lipofectamine 2000 or the calcium phosphate method with a total amount of 1 and 3.5 μg of DNA, respectively, and seeded on 18 mm diameter coverslips. HEK cells were maintained in DMEM with 5% FBS on poly-L-lysine-coated glass coverslips in 12 well plates. PCT cells from wild type and knock-out mice were microdissected as described previously and maintained in F12 (Gibco) on collagen-coated glass coverslips.
(§2) HEK293T and PCT cell electrophysiology was performed 24-48 h after transfection. For whole-cell patch-clamp experiments cells were recorded in a bath solution containing (in mM) 150 NaCl, 5 KCl, 2 CaCl2 and 10 HEPES, pH 7.4 and 0.05% BSA. The glass pipettes (2-5 MΩ of resistance) were filled with (in mM) 5 NaCl, 135 CsCl, 2 MgCl2, 5 EGTA, 10 HEPES, pH 7.3. Cells were recorded either after incubation of 30 min with the peptide or during perfusion with the peptide. Total calcium concentration was calculated with Maxchelator (maxchelator.standford.edu) for a temperature of 20° C. HEK293T and PCT cells were recorded at room temperature in voltage-clamp mode using an Axopatch 200A (Molecular Devices) amplifier. Signals were filtered at 10 kHz and digitalized at 20 kHz. Whole-cell currents were elicited by voltage-ramps (from −100 to +100 mV, 1 s) and I-V stimulation pulses (from −100 to +100 mV in 20 mV increments, 1 s each pulse), holding the cells at −80 mV. Current densities were measured at +100 mV. Cell recordings, data acquisition and analysis of electrophysiology experiments were performed using pClamp software (Molecular Devices).

Assay [3] deals with T2, TMEM16A (Mus musculus, UniProt Q8BHY3).
T2 construct: endogenous in cells; host or cells: primary mouse kidney proximal convoluted tubule (PCT) cells
The assay can be described thus: Whole-cell patch-clamp of voltage-dependent Cl- current in proximal convoluted tubule (PCT) cells. The format is cell-based. The note with it: for Cl- current density after inhibitor: wild type PCT cells, untreated wild type 18.07±1.21. The procedure: as §1, §2
T2 sequence (P23299 whole entry partner, one chain of several): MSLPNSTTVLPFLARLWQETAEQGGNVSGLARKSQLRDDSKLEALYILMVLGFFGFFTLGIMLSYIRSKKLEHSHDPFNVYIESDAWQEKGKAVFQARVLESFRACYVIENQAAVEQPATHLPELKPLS
(In general: Patch clamp records ionic current or voltage across a cell membrane.)

For another assay, the target named is T3, KCNQ1 (Homo sapiens, UniProt P51787).
T3 construct: expressed in transfected cells
The assay is described as follows: Whole-cell patch-clamp of cells transfected with KCNQ1 and KCNE1 variants. The format is cell-based. Conditions: co-transfected with wild type KCNQ1, current densities at +40 mV.

The next assay concerns the target T4, SK4 channel (Homo sapiens, UniProt O15554).
T4 construct: expressed in transfected cells
The assay is described as follows: Patch-clamp of HEK293T cells transfected with SK4 and KCNE1. The class given is cell-based. Conditions: absence of calcium. Here is the method:
as §2

The mark [4] stands for this setting: KCNE1 form co-expressed with TMEM16A in HEK293T cells.

Consider `N=C(N)NC(=O)c1nc(Cl)c(N)nc1N` [Amiloride, amiloride, reference compound], for which the “effect on tearing rate compared with Vehicle” value in assay [1] (N13ter 10 mM, amiloride 1 mM, vehicle PBS) was “did not show a statistically significant effect”. For the same compound, the “eyes with increased tearing rate between 1 h to 3 h” value in assay [1] (amiloride 1 mM topical) is 7 out of 14.
With “LLAKRGRDSGPSR (SEQ ID NO: 7) (Synthetic scramble peptide) [scrambled control peptide, reference compound]”, the “effect of peptide application on TMEM16A current” value (from here on “effect of peptide application”) in the assay with TMEM16A [2] is given as “no effect”. Also, the “tearing rate at 12 h” value in assay [1] (10 mM topical, 5 μl per eye, n=20 eyes, basal 7.65±0.49 mm (N13ter), 8.10±0.54 mm (Scramble)) is given as 6.45±0.34 mm. In assay [1] (N13ter vs Scramble study, both 10 mM topical), the “effect on tearing rate” value is “sustained small decrease”.
On to “T7I: KCNE1 disease mutation T7I, not in the regulating domain, control”, for which, in the assay with TMEM16A [2] (setting [4]), the “current density at +100 mV” value is reported as 24.69±1.57 pA/pF.
Take `O=C(O)c1cccnc1Nc1cccc(C(F)(F)F)c1` [NFA, niflumic acid, reference compound]: the “inhibition of KCNE1-TMEM16A chloride current” value (“inhibition” below) at TMEM16A [2] (NFA 100 μM) is reported as “inhibited”. The “Cl- current density after inhibitor” value at TMEM16A [3] (NFA 100 μM) is recorded as 4.51±0.28 pA/pF.
Consider “S38G: KCNE1 S38G polymorphism variant (full protein, not the hS38G peptide)”, for which, in the assay with TMEM16A [2] (setting [4]), the “current density at +100 mV” value came to 6.96±0.78 pA/pF. Further, the “effect of KCNE1 polymorphism on KCNQ1 regulation” value with KCNQ1 was “do not impair the KCNQ1 regulation”.
For the compound `COc1ccccc1/C=N/NC(=O)COc1ccc(Cl)cc1C` [Ani9, reference compound], at TMEM16A [2] (Ani9 300 nM), the “inhibition” value was “inhibited”. The “effect of Ani9 on Nter13-induced TMEM16A current” value on TMEM16A [2] (Ani9 5 μM after Nter13 100 μM, HEK293T expressing TMEM16A alone) is reported as “reversion”. Besides, on TMEM16A [3] (Ani9 5 μM), the “Cl- current density after inhibitor” value is on record as 2.88±0.38 pA/pF.
As for “KCNE1: human KCNE1 protein of 129 amino acids (NP_000210.2), expressed from cDNA”, the reversal potential with TMEM16A [2] (KCNE1 co-expressed with TMEM16A in HEK293T cells) is recorded as −4.8±1.3 mV. The “current density at +100 mV” value came out at 18.1±2.8 pA/pF in the assay with TMEM16A [2] (setting [4]) and 21.98±5.32 pA/pF in the assay with TMEM16A [2] (TMEM16A co-expressed with KCNE1, 1 mM BAPTA). For the same compound, the “voltage-dependent Cl- current density after rescue” value with TMEM16A [3] (kcne1−/− PCT cells transfected with KCNE1 cDNA, KO 5.37±0.56) is 21.59±1.38 pA/pF. The “effect of KCNE1 overexpression on SK4 current” value with SK4 channel was “did not induce any increase”.
For “hS38G: hS38G peptide (SEQ ID NO: 5), N13 presenting S38G polymorphism (LARRSPRGGDGKL; hN13 S38G) [reference compound]”, the “effect of peptide application” value in the assay with TMEM16A [2] is recorded as “no effect”.
For the compound “rN13: rat N13 peptide (SEQ ID NO: 6) (LARRSQLRDDSKL; amino acid residues between positions 30 to 42 of the rat KCNE1 protein sequence)”, in the assay with TMEM16A [2], the “effect of peptide application” value was “only a small effect”.
Regarding `CCc1c(C)nc(SCC(=O)Nc2nc(-c3ccc(OC)cc3)cs2)[nH]c1=O` [T16Ainh-A01, reference compound], on TMEM16A [2] (T16A(inh)A01 10 μM), the “inhibition” value is listed as “inhibited”. The “Cl- current density after inhibitor” value at TMEM16A [3] (A01 10 μM) is 5.52±0.72 pA/pF.
